Assay results reported in PMC6950218 (Journal of Medicinal Chemistry, 2011).
pIC50: −log10 of the molar value. Where two headings read alike, the source gives them in different places.

Legend:
[1] = system: Caco-2; conditions: for Caco-2 A–B: apical to basolateral; for Caco-2 B–A: basolateral to apical
[2] = system: P. falciparum strain 3D7; assay: Antimalarial proliferation inhibition assay; assay type: cell-based, Plasmodium falciparum; conditions: for pIC50: mean of at least two experiments
[3] = not given; remark: listed apart in the source
[4] = not given; remark: listed apart in the source
[5] = system: P. falciparum strain W2; assay: Antimalarial proliferation inhibition assay; assay type: cell-based, Plasmodium falciparum; conditions: mean of at least two experiments
[6] = not given; remark: listed apart in the source
[7] = system: Huh7; assay: Cytotoxicity Huh7; assay type: cell-based
[8] = system: HeLa; assay: Cytotoxicity HeLa; assay type: cell-based
[9] = system: CHO; assay: Cytotoxicity CHO; assay type: cell-based
[10] = Maximum tolerable dose test in rats; conditions: rats in vivo
[11] = system: HEp2; assay: Cytotoxicity HEp2; assay type: cell-based
[12] = system: Ba/F3; assay: Cytotoxicity Ba/F3; assay type: cell-based
[13] = mini-Ames test
[14] = Micronucleus test
[15] = Plasmodium falciparum, 3D7, read-out: P. falciparum strain IC50 3D7, resynthesized powders (data in brackets)
[16] = Plasmodium falciparum, W2, read-out: P. falciparum strain IC50 W2, resynthesized powders (data in brackets)
[17] = resynthesized powders (data in brackets)

## 3-Amino-1-(2-(4-fluorophenyl)-3-(4-fluorophenylamino)-5,6-dihydroimidazo[1,2-a]pyrazin-7(8H)-yl)propan-1-one [Compound 29]
other
  PAMPA (% absorbed): low
[1]
  Caco-2 A–B: 0.99 cm/s × 10^6
  Caco-2 B–A: 2.99 cm/s × 10^6
[2]; read-out: P. falciparum strain IC50 3D7
  pIC50: 7.52
[3]
  hepatic microsome metabolic stability (extraction ratio) rat: 0.38
[4]
  hepatic microsome metabolic stability (extraction ratio) mouse: 0.21
[5]; read-out: P. falciparum strain IC50 W2
  pIC50: 7.64
[6]
  hepatic microsome metabolic stability (extraction ratio) human: 0.21

## NCC(=O)N1CCn2c(nc(-c3ccccc3)c2Nc2ccc3c(c2)OCO3)C1 [Compound 1a, 2-Amino-1-(3-(benzo[d][1,3]dioxol-5-ylamino)-2-phenyl-5,6-dihydroimidazo[1,2-a]pyrazin-7(8H)-yl)ethanone]
[2]; [15]
  pIC50: 6.34
[5]; [16]
  pIC50: 6.33
[7]; HTS DMSO stock solutions
  cyotoxicity Huh7: > 10 µM
[7]; [17]
  cyotoxicity Huh7: > 100 µM

## NC(Cc1ccccc1)C(=O)N1CCn2c(nc(-c3ccccc3)c2Nc2ccc3c(c2)OCO3)C1 (stereo not drawn) [Compound 1b, 2-Amino-1-(3-(benzo[d][1,3]dioxol-5-ylamino)-2-phenyl-5,6-dihydroimidazo[1,2-a]pyrazin-7(8H)-yl)-3-phenylpropan-1-one]
[2]; [15]
  pIC50: 6.92
[5]; [16]
  pIC50: 6.91
[7]; HTS DMSO stock solutions
  cyotoxicity Huh7: > 10 µM
[7]; [17]
  cyotoxicity Huh7: > 79 µM

## CC(C)CC(N)C(=O)N1CCn2c(nc(-c3ccccc3)c2Nc2ccc3c(c2)OCO3)C1 (stereo not drawn) [Compound 1c, 2-Amino-1-(3-(benzo[d][1,3]dioxol-5-ylamino)-2-phenyl-5,6-dihydroimidazo[1,2-a]pyrazin-7(8H)-yl)-4-methylpentan-1-one]
[2]; [15]
  pIC50: 7.52
[5]; [16]
  pIC50: 7.54
[7]; HTS DMSO stock solutions
  cyotoxicity Huh7: > 10 µM
[7]; [17]
  cyotoxicity Huh7: 42 µM

## NCC(=O)N1CCn2c(nc(-c3ccc(F)cc3)c2Nc2ccc(F)cc2)C1 [Compound 5, 2-Amino-1-(2-(4-fluorophenyl)-3-(4-fluorophenylamino)-5,6-dihydroimidazo[1,2-a]pyrazin-7(8H)-yl)ethanone]
other
  PAMPA (% absorbed): 52 % absorbed
[1]
  Caco-2 A–B: 0.70 cm/s × 10^6
  Caco-2 B–A: 2.55 cm/s × 10^6
[2]
  fold more potent than the original hit compound 1a: 4 fold

## CC(C)(N)C(=O)N1CCn2c(nc(-c3ccc(F)cc3)c2Nc2ccc(F)cc2)C1 [Compound 11, 2-Amino-1-(2-(4-fluorophenyl)-3-(4-fluorophenylamino)-5,6-dihydroimidazo[1,2-a]pyrazin-7(8H)-yl)-2-methylpropan-1-one]
[8]
  cytotoxicity TC50 HeLa: greater than 12 μM
other
  PAMPA (% absorbed): 81 % absorbed
[1]
  Caco-2 A–B: 3.05 cm/s × 10^6
  Caco-2 B–A: 8.38 cm/s × 10^6
[9]
  cytotoxicity TC50 CHO: greater than 12 μM
[10]
  maximum tolerable dose test: no gross effects at doses up to 500 mg/kg
[7]
  cytotoxicity TC50 Huh7: greater than 12 μM
[11]
  cytotoxicity TC50 HEp2: greater than 12 μM

## NCC(=O)N1CCn2c(nc(-c3cccc(F)c3)c2Nc2ccc(F)cc2)C1 [Compound 18, 2-Amino-1-(3-((4-fluorophenyl)amino)-2-(3-fluorophenyl)-5,6-dihydroimidazo[1,2-a]pyrazin-7(8H)-yl)ethanone]
other
  PAMPA (% absorbed): low
[1]
  Caco-2 A–B: 0.56 cm/s × 10^6
  Caco-2 B–A: 2.32 cm/s × 10^6

## NCC(=O)N1CCn2c(nc(-c3ccc(F)cc3)c2Nc2ccc(Cl)cc2)C1 [Compound 27, 2-Amino-1-(3-(4-chlorophenylamino)-2-(4-fluorophenyl)-5,6-dihydroimidazo[1,2-a]pyrazin-7(8H)-yl)ethanone]
other
  PAMPA (% absorbed): 52 % absorbed
[1]
  Caco-2 A–B: 0.44 cm/s × 10^6
  Caco-2 B–A: 1.25 cm/s × 10^6

## CC(C)(N)C(=O)N1CCn2c(nc(-c3ccc(F)cc3)c2Nc2ccc(Cl)cc2)C1 [Compound 28, 2-Amino-1-(3-(4-chlorophenylamino)-2-(4-fluorophenyl)-5,6-dihydroimidazo[1,2-a]pyrazin-7(8H)-yl)-2-methylpropan-1-one]
other
  PAMPA (% absorbed): 89 % absorbed
[1]
  Caco-2 A–B: 1.46 cm/s × 10^6
  Caco-2 B–A: 1.86 cm/s × 10^6

## CC(C)(N)C(=O)N1CCn2c(nc(-c3ccc(F)cc3)c2Nc2ccc(F)c(F)c2)C1 [Compound 30, 2-Amino-1-(3-(3,4-difluorophenylamino)-2-(4-fluorophenyl)-5,6-dihydroimidazo[1,2-a]pyrazin-7(8H)-yl)-2-methylpropan-1-one]
[8]
  cytotoxicity TC50 HeLa: greater than 12 μM
other
  PAMPA (% absorbed): 86 % absorbed
[1]
  Caco-2 A–B: 0.14 cm/s × 10^6
  Caco-2 B–A: 1.03 cm/s × 10^6
[9]
  cytotoxicity TC50 CHO: greater than 12 μM
[7]
  cytotoxicity TC50 Huh7: greater than 12 μM
[12]
  cytotoxicity TC50 Ba/F3: greater than 12 μM
[13]
  mini-Ames test: negative
[14]
  micronucleus test: negative
[11]
  cytotoxicity TC50 HEp2: greater than 12 μM

## CC(C)(N)C(=O)N1CCn2c(nc(-c3ccc(F)cc3)c2Nc2ccc(Cl)c(F)c2)C1 [Compound 32, 2-Amino-1-(3-(4-chloro-3-fluorophenylamino)-2-(4-fluorophenyl)-5,6-dihydroimidazo[1,2-a]pyrazin-7(8H)-yl)-2-methylpropan-1-one]
other
  PAMPA (% absorbed): 94 % absorbed
[1]
  Caco-2 A–B: 0.84 cm/s × 10^6
  Caco-2 B–A: 0.87 cm/s × 10^6
